Measured values as given in ChEMBL document CHEMBL4433228, “Identification and immunological evaluation of novel TLR2 agonists through structure optimization of Pam3CSK4” (Bioorg Med Chem, 2019).
Values belong to the compound of their own block, whether it stands above or below them. Calls of active or inactive are those of the source. The rule behind the calls is not given here. Residues, ends and D or L forms follow the SMILES beside them. *: point of attachment. Propyl(2R-PamO,3-PamO) = CCCCCCCCCCCCCCCC(=O)OC[C@H](C*)OC(=O)CCCCCCCCCCCCCCC; Palmitoyl = CCCCCCCCCCCCCCCC(=O)*

Columns and labels:
[1] = target: Toll-like receptor 2 (Mus musculus) (UniProt Q9QUN7); test: Agonist activity at TLR2 in wild type mouse BMDM cells assessed as induction of NFkappaB pathway activation by measuring increase in IL-6 mRNA expression by qRT-PCR analysis; format: cell-based
[2] = target: Toll-like receptor 2 (Mus musculus) (UniProt Q9QUN7); test: Agonist activity at TLR2 in mouse BV2 cells assessed as increase in IL-6 secretion at 1 uM incubated for 24 hrs in presence of NF-kappaB inhibitor triptolide by ELISA; format: cell-based
[3] = target: Toll-like receptor 2 (Mus musculus) (UniProt Q9QUN7); test: Activation of TLR2 in wild type mouse BMDM cells assessed as stimulation of TNFalpha production at 0.1 to 1 uM incubated for 24 hrs by ELISA; format: cell-based
[4] = target: T1, TLR2/TLR6 (Homo sapiens) (UniProt O60603+Q9Y2C9); test: Agonist activity at TLR2/6 in PMA-differentiated human THP-1 cells assessed as induction of IL-6 production at 2.5 uM incubated for 24 hrs after preincubation with anti-hTLR6-IGG for 2 hrs by ELISA; format: cell-based
[5] = target: Toll-like receptor 2 (Mus musculus) (UniProt Q9QUN7); test: Activation of TLR2 in wild type mouse BMDM cells assessed as stimulation of IL-6 production at 0.1 to 1 uM incubated for 24 hrs by ELISA; format: cell-based
[6] = system: THP-1; test: Agonist activity at TLR2/1 in PMA-differentiated human THP-1 cells assessed as induction of IL-6 production at 2.5 uM incubated for 24 hrs after preincubation with anti-hTLR1-IGG for 2 hrs by ELISA; format: cell-based
[7] = target: Toll-like receptor 2 (Mus musculus) (UniProt Q9QUN7); test: Agonist activity at TLR2 in mouse dendritic cells assessed as upregulation CD80 expression at 100 ng/ml by flow cytometry; format: cell-based
[8] = target: Toll-like receptor 2 (Mus musculus) (UniProt Q9QUN7); test: Activation of TLR2 in wild type mouse BMDM cells assessed as stimulation of IL-12 production at 0.1 to 1 uM incubated for 24 hrs by ELISA; format: cell-based
[9] = target: Toll-like receptor 1/2 (Homo sapiens) (UniProt O60603+Q15399); test: Agonist activity at TLR2/1 in PMA-differentiated human THP-1 cells assessed as induction of IL-6 production at 2.5 uM incubated for 24 hrs after preincubation with anti-hTLR2-IGA for 2 hrs by ELISA; format: cell-based
[10] = system: BMDM; test: Effect on IL-6 production in TLR2-/- mouse BMDM cells at 0.1 to 1 uM incubated for 24 hrs by ELISA; format: functional, cell-based
[11] = target: Toll-like receptor 2 (Mus musculus) (UniProt Q9QUN7); test: Agonist activity at TLR2 in mouse BV2 cells assessed as increase in IL-6 secretion at 2 uM incubated for 24 hrs by ELISA; format: cell-based
[12] = system: BMDM; test: Effect on TNFalpha production in TLR2-/- mouse BMDM cells at 0.1 to 1 uM incubated for 24 hrs by ELISA; format: functional, cell-based
[13] = system: BV-2; test: Cytotoxicity against mouse BV2 cells assessed as cell viability up to 5 uM incubated for 24 hrs by CCK-8 assay; format: cell-based; settings: bv-2, 24 h
[14] = system: BV-2; test: Effect on IkappaBalpha protein expression in mouse BV2 cells at 0.2 to 2 uM incubated for 12 hrs by Western blot analysis; format: ADME, cell-based; settings: bv-2, 12 h
[15] = (§1) Effect on IL-6 mRNA expression in TLR2-/- mouse BMDM cells at 0.1 to 1 uM by qRT-PCR analysis; format: ADME, cell-based
[16] = as §1; format: ADME, cell-based; remark: listed apart in the source
[17] = system: BMDM; test: Effect on IL-12 production in TLR2-/- mouse BMDM cells at 0.1 to 1 uM incubated for 24 hrs by ELISA; format: functional, cell-based
[18] = target: Toll-like receptor 2 (Homo sapiens) (UniProt O60603); test: Agonist activity at human TLR2 in PMA-differentiated THP-1 cells assessed as induction of IL-6 production at 0.5 to 2.5 uM incubated for 24 hrs by ELISA; format: cell-based
[19] = target: Toll-like receptor 2 (Mus musculus) (UniProt Q9QUN7); test: Agonist activity at TLR2 in mouse RAW264.7 cells assessed as induction of IL-6 production incubated for 24 hrs by ELISA; format: cell-based
[20] = target: Toll-like receptor 2 (Mus musculus) (UniProt Q9QUN7); test: Agonist activity at TLR2 in mouse dendritic cells assessed as upregulation MHC class 2 expression at 100 ng/ml by flow cytometry; format: cell-based
[21] = target: Toll-like receptor 2 (Mus musculus) (UniProt Q9QUN7); test: Agonist activity at TLR2 in mouse dendritic cells assessed as upregulation CD86 expression at 100 ng/ml by flow cytometry; format: cell-based
[22] = target: Toll-like receptor 2 (Mus musculus) (UniProt Q9QUN7); test: Agonist activity at TLR2 in mouse BV2 cells assessed as stimulation of NFkappaB pathway by measuring increase in IkappaBalpha phosphorylation incubated for 12 hrs by Western blot analysis; format: cell-based
[23] = Effect on TNFalpha mRNA expression in TLR2-/- mouse BMDM cells at 0.1 to 1 uM by qRT-PCR analysis; format: ADME, cell-based
[24] = system: Dendritic cell; test: Effect on CD86 expression in TLR2-/- mouse dendritic cells at 100 ng/ml by flow cytometry; format: ADME, cell-based
[25] = system: Dendritic cell; test: Effect on CD80 expression in TLR2-/- mouse dendritic cells at 100 ng/ml by flow cytometry; format: ADME, cell-based
[26] = system: THP-1; test: Cytotoxicity against human THP1 cells assessed as cell viability up to 5 uM incubated for 24 hrs by CCK-8 assay; format: cell-based; settings: thp-1, 24 h
[27] = system: Dendritic cell; test: Effect on MHC class 2 expression in TLR2-/- mouse dendritic cells at 100 ng/ml by flow cytometry; format: ADME, cell-based
[28] = target: Toll-like receptor 2 (Mus musculus, UniProt Q9QUN7); test: Agonist activity at TLR2 in wild type mouse BMDM cells assessed as induction of NFkappaB pathway activation by measuring increase in TNF-alpha mRNA expression by qRT-PCR analysis; format: cell-based
[29] = target: T1, TLR2/TLR6 (Homo sapiens); test: Agonist activity at TLR2/6 in PMA-differentiated human THP-1 cells assessed as induction of IL-6 production at 2.5 uM incubated for 24 hrs after preincubation with […] for 2 hrs by ELISA; format: cell-based
[30] = target: Toll-like receptor 1/2 (Mus musculus) (UniProt Q9QUN7+Q9EPQ1); test: Agonist activity at TLR2/1 in mouse BV2 cells assessed as induction of IL-6 production at 2 uM incubated for 24 hrs in presence of TLR2/1 inhibitor CU-CPT22 by ELISA; format: cell-based

Toll-like receptor 2 (Mus musculus), sequence (Q9QUN7 whole entry): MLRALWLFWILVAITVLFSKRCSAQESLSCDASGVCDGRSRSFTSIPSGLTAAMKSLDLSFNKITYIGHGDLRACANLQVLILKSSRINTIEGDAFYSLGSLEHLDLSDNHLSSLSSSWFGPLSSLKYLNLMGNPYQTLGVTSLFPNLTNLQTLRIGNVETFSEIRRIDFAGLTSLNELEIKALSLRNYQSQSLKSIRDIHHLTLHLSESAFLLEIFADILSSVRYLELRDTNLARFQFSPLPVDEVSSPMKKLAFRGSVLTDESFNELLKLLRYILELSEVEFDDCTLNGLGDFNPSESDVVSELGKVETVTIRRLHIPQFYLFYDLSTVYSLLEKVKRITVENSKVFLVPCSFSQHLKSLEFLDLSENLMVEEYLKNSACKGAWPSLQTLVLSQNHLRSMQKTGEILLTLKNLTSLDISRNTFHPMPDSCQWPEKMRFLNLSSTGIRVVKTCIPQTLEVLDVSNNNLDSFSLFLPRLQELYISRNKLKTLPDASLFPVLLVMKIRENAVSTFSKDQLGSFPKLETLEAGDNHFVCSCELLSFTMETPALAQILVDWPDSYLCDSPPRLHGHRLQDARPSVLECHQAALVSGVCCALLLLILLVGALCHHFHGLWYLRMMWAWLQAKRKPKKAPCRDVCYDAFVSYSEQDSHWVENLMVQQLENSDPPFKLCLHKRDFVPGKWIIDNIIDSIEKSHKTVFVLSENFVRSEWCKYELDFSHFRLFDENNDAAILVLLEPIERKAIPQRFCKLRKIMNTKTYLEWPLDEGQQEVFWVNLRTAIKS
Toll-like receptor 2, sequence (Q9QUN7 whole entry): as above
Toll-like receptor 2 (Homo sapiens), sequence (O60603 whole entry): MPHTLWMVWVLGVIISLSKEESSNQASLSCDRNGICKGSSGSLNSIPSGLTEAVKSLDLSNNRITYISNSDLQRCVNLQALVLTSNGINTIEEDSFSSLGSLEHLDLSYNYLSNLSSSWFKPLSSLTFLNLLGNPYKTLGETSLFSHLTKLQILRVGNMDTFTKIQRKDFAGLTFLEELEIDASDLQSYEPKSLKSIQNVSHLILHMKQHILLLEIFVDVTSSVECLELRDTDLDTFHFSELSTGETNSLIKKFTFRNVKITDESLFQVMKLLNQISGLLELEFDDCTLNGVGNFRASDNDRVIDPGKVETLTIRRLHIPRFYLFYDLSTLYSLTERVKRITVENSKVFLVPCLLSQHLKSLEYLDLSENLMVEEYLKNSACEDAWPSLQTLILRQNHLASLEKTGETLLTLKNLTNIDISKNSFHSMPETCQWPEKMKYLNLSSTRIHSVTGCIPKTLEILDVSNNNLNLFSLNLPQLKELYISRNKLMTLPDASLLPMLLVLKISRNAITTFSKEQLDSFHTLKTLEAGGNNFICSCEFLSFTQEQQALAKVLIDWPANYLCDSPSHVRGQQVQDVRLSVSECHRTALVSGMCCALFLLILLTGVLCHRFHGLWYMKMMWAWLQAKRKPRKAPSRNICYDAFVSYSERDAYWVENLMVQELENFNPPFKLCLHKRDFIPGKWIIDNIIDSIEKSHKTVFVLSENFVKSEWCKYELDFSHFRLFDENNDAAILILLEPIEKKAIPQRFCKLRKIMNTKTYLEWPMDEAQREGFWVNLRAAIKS

SMILES: CCCCCCCCCCCCCCCC(=O)N[C@@H](CSCCOC(=O)CCCCCCCCCCCCCCC)C(=O)N[C@H](CO)C(=O)N[C@@H](CCCCN)C(=O)N[C@@H](CCCCN)C(=O)N[C@@H](CCCCN)C(=O)N[C@@H](CCCCN)C(=O)O
Activity [1]: Dose-dependent effect | Activity [2]: inactive | Activity [3]: Active | Activity [4]: inactive | Activity [5]: inactive | Activity [6]: inactive | Activity [7]: Dose-dependent effect | Activity [8]: Active | Activity [9]: Active | Activity [10]: Dose-dependent effect | Activity [11]: Active | Activity [12]: inactive

SMILES: CCCCCCCCCCCCCCCCOC(=O)NCCSC[C@H](NC(=O)CCCCCCCCCCCCCCC)C(=O)N[C@H](CO)C(=O)N[C@@H](CCCCN)C(=O)N[C@@H](CCCCN)C(=O)N[C@@H](CCCCN)C(=O)O
Activity [9]: Active | Activity [10]: Active | Activity [11]: Active

SMILES: CCCCCCCCCCCCCCCC(=O)N[C@@H](CSC[C@@H](COC(=O)CCCCCCCCCCCCCCC)OC(=O)CCCCCCCCCCCCCCC)C(=O)N[C@@H](CO)C(=O)N[C@@H](CCCCN)C(=O)N[C@@H](CCCCN)C(=O)N[C@@H](CCCCN)C(=O)N[C@@H](CCCCN)C(=O)O (Palmitoyl-C(Propyl(2R-PamO,3-PamO))SKKKK-OH)
Activity [1]: Dose-dependent effect | Activity [4]: inactive | Activity [17]: Active | Activity [6]: inactive | Activity [7]: Dose-dependent effect | Activity [15]: Non-Toxic | Activity [16]: Non-Toxic

SMILES: CCCCCCCCCCCCCCCCOC(=O)NCCSC[C@H](NC(=O)CCCCCCCCCCCCCCC)C(=O)N[C@@H](CO)C(=O)N[C@@H](CCCCN)C(=O)N[C@@H](CCCCN)C(=O)N[C@@H](CCCCN)C(=O)O
Activity [13]: Non-Toxic

SMILES: CCCCCCCCCCCCCCCCOC(=O)NCCSC[C@H](NC(=O)NCCCCCCCCCCCCCC)C(=O)N[C@@H](CO)C(=O)N[C@@H](CCCCN)C(=O)N[C@@H](CCCCN)C(=O)N[C@@H](CCCCN)C(=O)N[C@@H](CCCCN)C(=O)O
Activity [13]: Non-Toxic

More lines, main results first:

Activity [14]: Active
SMILES: CCCCCCCCCCCCCCCC(=O)N[C@@H](CSCCOC(=O)CCCCCCCCCCCCCCC)C(=O)N[C@@H](CO)C(=O)N[C@@H](CCCCN)C(=O)N[C@@H](CCCCN)C(=O)N[C@@H](CCCCN)C(=O)N[C@@H](CCCCN)C(=O)O
Activity [13]: Non-Toxic | Activity [15]: Non-Toxic | Activity [16]: Non-Toxic

Activity [9]: inactive
SMILES: CCCCCCCCCCCCCCCC(=O)NCCSC[C@H](NC(=O)CCCCCCCCCCCCCCC)C(=O)N[C@H](CO)C(=O)N[C@@H](CCCCN)C(=O)N[C@@H](CCCCN)C(=O)N[C@@H](CCCCN)C(=O)N[C@@H](CCCCN)C(=O)O
Activity [10]: inactive

Activity [14]: Active
SMILES: CCCCCCCCCCCCCCCC(=O)N[C@@H](CSCCNC(=O)OCCCCCCCCCCCCCC)C(=O)N[C@@H](CO)C(=O)N[C@@H](CCCCN)C(=O)N[C@@H](CCCCN)C(=O)N[C@@H](CCCCN)C(=O)N[C@@H](CCCCN)C(=O)O
Activity [15]: Non-Toxic | Activity [16]: Non-Toxic

Activity [9]: inactive
SMILES: CCCCCCCCCCCCCCCCNC(=O)NCCSC[C@H](NC(=O)CCCCCCCCCCCCCCC)C(=O)N[C@H](CO)C(=O)N[C@@H](CCCCN)C(=O)N[C@@H](CCCCN)C(=O)N[C@@H](CCCCN)C(=O)N[C@@H](CCCCN)C(=O)O
Activity [10]: inactive

Activity [1]: Dose-dependent effect | Activity [2]: inactive | Activity [3]: Active | Activity [4]: inactive | Activity [5]: inactive | Activity [18]: Active | Activity [19]: Dose-dependent effect | Activity [20]: Active | Activity [7]: Dose-dependent effect | Activity [8]: Active | Activity [9]: Active | Activity [11]: Active | Activity [21]: Active | Activity [22]: inactive
SMILES: CCCCCCCCCCCCCCCCOC(=O)NCCSC[C@H](NC(=O)CCCCCCCCCCCCCCC)C(=O)N[C@H](CO)C(=O)N[C@@H](CCCCN)C(=O)N[C@@H](CCCCN)C(=O)N[C@@H](CCCCN)C(=O)N[C@@H](CCCCN)C(=O)O
Activity [6]: inactive | Activity [10]: Active | Activity [12]: inactive

Activity [25]: Active | Activity [14]: Active | EC50 [28]: 83.1 nM
SMILES: CCCCCCCCCCCCCCCCOC(=O)NCCSC[C@H](NC(=O)CCCCCCCCCCCCCCC)C(=O)N[C@@H](CO)C(=O)N[C@@H](CCCCN)C(=O)N[C@@H](CCCCN)C(=O)N[C@@H](CCCCN)C(=O)N[C@@H](CCCCN)C(=O)O
Activity [13]: Non-Toxic | Activity [23]: Non-Toxic | Activity [24]: Non-Toxic | Activity [26]: Non-Toxic | Activity [27]: Non-Toxic | Activity [15]: Non-Toxic | Activity [16]: Non-Toxic

Activity [29]: inactive | Activity [30]: inactive | Activity [11]: Active
SMILES: CCCCCCCCCCCCCCCCOC(=O)NCCSC[C@H](NC(=O)NCCCCCCCCCCCCCC)C(=O)N[C@H](CO)C(=O)N[C@@H](CCCCN)C(=O)N[C@@H](CCCCN)C(=O)N[C@@H](CCCCN)C(=O)N[C@@H](CCCCN)C(=O)O
Activity [10]: inactive

Activity [1]: Dose-dependent effect | Activity [2]: inactive | Activity [3]: Active | Activity [5]: inactive | Activity [7]: Dose-dependent effect | Activity [8]: Active | Activity [9]: inactive
SMILES: CCCCCCCCCCCCCCCC(=O)N[C@@H](CSCCNC(=O)OCCCCCCCCCCCCCC)C(=O)N[C@H](CO)C(=O)N[C@@H](CCCCN)C(=O)N[C@@H](CCCCN)C(=O)N[C@@H](CCCCN)C(=O)N[C@@H](CCCCN)C(=O)O
Activity [10]: Active | Activity [12]: inactive
